Laboratory results taken from publication PMC6277555, “Short Symmetric-End Antimicrobial Peptides Centered on β-Turn Amino Acids Unit Improve Selectivity and Stability” (Frontiers in Microbiology, 2018).
Values after ≈ are worked out from the molar mass of the structure shown. Residues, ends and D or L forms follow the SMILES beside them.

Experiments:
[1] = system: S. epidermidis ATCC 12228; format: cell-based, Staphylococcus epidermidis
Procedure: (§1) The minimal inhibitory concentration (MIC) was determined according to a previously described method ([Chou et al., 2016]). Bacteria were cultured overnight to mid-log phase in MHB at 37°C and then diluted to give final concentrations ranging from 2 × 10^5 to 7 × 10^5 CFU/mL. Then, 50 μL of serial twofold dilutions of the peptides were added to each well in 96-well microtiter plates with a mixed solution containing 0.01% acetic acid and 0.2% bovine serum albumin (BSA, Sigma) was used to dissolve and dilute the peptides. Then, equal amounts of bacterial aliquots were incubated with the above peptide solution for 18–24 h at 37°C. The experiment was performed in triplicate using three replicates for each peptide and each bacterium. The broth was employed as a negative control and the broth with microbial cells was used as a positive control. The lowest concentration of peptide that prevented visible turbidity was defined as the MIC.

hRBCs = assay: Hemolytic activity; format: cell-based, human; conditions: peptide concentration resulting in 5% hemolysis of hRBCs; PBS, 1 h, 37°C
Procedure: The hemolytic activity of the peptides was detected using a previously described modified method ([Wang et al., 2015]). One milliliter of fresh hRBCs was obtained from a healthy donor (Zhihua Wang, Harbin, China) in a polycarbonate tube containing heparin. The collected hRBCs were centrifuged at 1000 × g for 5 min at 4°C and resuspended in PBS buffer (pH 7.2). The hRBCs were washed three times and then incubated with an equal volume of the respective peptide dissolved in PBS for 1 h at 37°C. Then, the hRBC suspension was placed into a 96-well microtiter plater with 50 μL of tested peptide solution at different concentrations and the mixture was incubated for 1 h at 37°C. […] The minimum hemolytic concentrations (MHCs) were defined as the peptide concentrations resulting in 5% hemolysis.

E. coli UB1005 = format: cell-based, Escherichia coli
Procedure: as §1

With `CC[C@H](C)[C@H](N)C(=O)N[C@@H](Cc1c[nH]cn1)C(=O)N[C@@H](CCCCN)C(=O)N[C@@H](Cc1ccccc1)C(=O)N[C@@H](Cc1c[nH]c2ccccc12)C(=O)N[C@@H](CCCNC(=N)N)C(=O)N[C@@H](CS)C(=O)N[C@@H](CCCNC(=N)N)C(=O)N[C@@H](CCCNC(=N)N)C(=O)N[C@@H](CCCNC(=N)N)C(=O)N[C@@H](Cc1ccccc1)C(=O)N[C@@H](CS)C(=O)N[C@@H](CCCNC(=N)N)C(=O)N[C@@H](Cc1c[nH]c2ccccc12)C(=O)N[C@@H](Cc1ccccc1)C(=O)N[C@@H](CCCCN)C(=O)N[C@@H](Cc1c[nH]cn1)C(=O)N[C@H](C(N)=O)[C@@H](C)CC` [PQ] (H-IHKFWRCRRRFCRWFKHI-NH2; N-terminus assumed) the MIC [1] was 8 µM (≈ 20.6 µg/mL), the “MHC (minimum hemolytic concentration)” value (hRBCs) was >128 µM and the MIC (E. coli UB1005) was 8 µM (≈ 20.6 µg/mL).
